In patent US10723744B2, “Transplantation therapies” (Aphios Corporation, priority 2007, dated 2020):
Entries after “also recorded” stand apart in the source; their conditions may differ. Like-named read-outs stand apart in the source and are kept apart here.

Key:
[1] = test system: HUVECs; test: Neutrophil TEM restoration studies with PKC inhibitors; format: cell-based, human; conditions: HUVEC; for restoration of PMN TEM in response to LTB4 by PKC inhibitors (reversal of Bryostatin-1 protection): inhibitor pretreatment (Go-6983, Go-6976: 1, 10, 100 nM), then 100 nM Bryostatin-1
Procedure: (§1) HUVECs were pretreated with Go-6983 (1, 10, 100 nM), or Go-6976 (1, 10, 100 nM) for 30 minutes, then spiked with 100 nM Bryostatin-1 for 1 hour. HUVECs previously nucleofected with PKC-δ, -ε, or control siRNA were just treated in Bryostatin-1 for 1 hour. HUVECs were washed three times and placed in a new plate containing either 500 μL 100 nM LTB4, or HBSS alone for control. Neutrophils were allowed to migrate for 3 h at 37° C. Migration was stopped by removing the inserts and migration was measured using the MPO assay.
(§2) Neutrophil migration was measured using myeloperoxidase (MPO) analysis. Cell culture inserts were first removed and plates were spun at 1,500 RPM for 5 min. The supernatant was removed, and MPO activity was measured using TMB/peroxide as chromogen. The reaction was stopped with sulfuric acid and absorbance was read at 450 nm using a microplate reader. All experiments were performed n=6. Data was expressed as “% neutrophil migration”, which allowed cumulative statistical analysis to be done and account for unpreventable batch-to-batch variations.

[2] = cited from earlier work
[3] = test system: HMEC; test: Alamar blue endothelial viability assay, HMEC; format: cell-based, human; conditions: single 1 h 100 nM treatment; time points 1, 24, 48 h
Procedure: (§3) The Alamar blue assay was used to determine endothelial viability after pharmacological intervention. Alamar blue contains a REDOX indicator that results in a color change upon chemical reduction by cellular metabolic activity. Endothelial cells were treated with Bryostatin-1 (100 nM) for 1 h and washed three times with HBSS. Alamar blue (10%) in media was added for 2.5 h at T=0, 24, or 48 hours after drug treatment and the ratio of absorbances (570-600 nm) was measured to determine metabolic activity.

[4] = test system: HMECs; test: Time course of protection against LTB4 induced PMN TEM after 1 h pretreatment, HMECs; format: cell-based, human; conditions: for time after pretreatment up to which LTB4 induced migration is reduced: 100 nM, 1 h pretreatment, washed, tested at 0, 24, 48 hours; for time after pretreatment for which reduction in LTB4 induced migration is maintained: single 1 h 100 nM pretreatment
Procedure: FIG. 6 graphically depicts protection against LTB4 induced PMN TEM with PMA up to 48 h after pretreatment. HMECs were pretreated for 1 h with PMA and washed with HBSS three times to remove PMA prior to replacement of culture medium. Neutrophil migration studies were then performed at 0, 24, or 48 hours. Migration was stimulated by adding 500,000 neutrophils to the top well and 100 nM LTB4 to the lower well at 0, 24, and 48 hours after PMA pretreatment. […] PMA (100 nM, (10^−7M) reduced LTB4 induced migration up to 48 hours after 1 h of endothelial-specific pretreatment (***p<0.001).
Referring now to FIG. 7, FIG. 7 graphically depicts protection from LTB4 induced PMN TEM with Bryostatin-1 up to 48 hours after pretreatment. HMECs were pretreated for 1 h with Bryostatin-1 and washed with HBSS three times to remove Bryostatin-1 prior to replacement of culture medium. Neutrophil migration studies were then performed at 0, 24, or 48 hours. Migration was stimulated by adding 500,000 neutrophils to the top well and 100 nM LTB4 to the lower well at 0, 24, and 48 hours after Bryostatin-1 pretreatment. […] Bryostatin-1 (100 nM) reduced LTB4 induced migration up to 48 hours after 1 hour endothelial pretreatment (***p<0.001).
(§4) At confluency, HUVECs were treated for 1 h at 37° C. with Bryostatin-1 (10 nM, 100 nM) in EGM or EGM alone. Inserts were washed three times with HBSS (to reduce drug effects on the neutrophils) and migration assays were ran at t=0, 24, or 48 h. After time elapsed, HUVECs were placed in a new plate containing either 500 μL 100 nM LTB4 or HBSS alone for control. 500 μL HBSS was then added to the top well and spiked with 500,000 neutrophils. Neutrophils were allowed to migrate for 3 h at 37° C. Migration was stopped by removing the inserts and migration was measured using the MPO assay.
as §2

[5] = test system: HUVECs; test: Time course of protection against LTB4 induced PMN TEM after 1 h pretreatment, HUVECs; format: cell-based, human; conditions: single 1 h 100 nM pretreatment
Procedure: as §4, §2

[6] = test system: HMEC monolayers; test: LTB4 induced neutrophil adhesion to the endothelial monolayer; format: cell-based, human; conditions: data not shown
Procedure: (§5) Confluent HMEC monolayers were plated on 48-well plates for adhesion studies, transwells for migration studies, and pretreated with a variety of pharmacological inhibitors and activators for 1 hour. Monolayers were washed three times with HBSS to remove all drug effects on the endothelium. To initiate migration, 100 nM LTB4 was added to the lower compartment and 500,000 neutrophils were added to the upper compartment and allowed to migrate for 3 h. For adhesion assays, LTB4 was added along with 500,000 neutrophils and allowed to adhere for 1 h (time of max. adhesion as determined in FIG. 1). […] The data are shown as % change in migration and adhesion as assessed by MPO assay. All values are expressed as means±SE. Data were analyzed using a one-way ANOVA with Bonferroni corrections for multiple comparisons. Probability (p) values of <0.05 were considered significant. ***p<0.001 vs. LTB4; **p<0.01 vs. LTB4; **p<0.05 vs. LTB4; n=4 for all experiments.

[7] = test system: T84 intestinal epithelia; conditions: cited from earlier work
[8] = test system: PKC-ε siRNA nucleofected HUVEC; test: LTB4 induced neutrophil migration across PKC-ε siRNA nucleofected HUVEC; format: cell-based, human; conditions: 1 hour pretreatment
Procedure: as §1, §2
(§6) Optimum nucleofection parameters were determined using nucleofection of a control vector pmaxGFP. Using fluorescence microscopy and flow cytometry, 2 μg vector/500,000 cells nucleofected yielded the highest nucleofection (data not shown). HUVECs were grown to 70% confluency, trypsinized, and then counted. […]

[9] = test system: PKC-δ siRNA nucleofected HUVEC; test: LTB4 induced neutrophil migration across PKC-δ siRNA nucleofected HUVEC; format: cell-based, human; conditions: 100 nM, 1 hour
Procedure: as §1, §2, §6

[10] = test system: HMECs; format: cell-based, human; conditions: for TNF-α induced neutrophil TEM (Type II migration): HMECs, 24 h TNF-α 10 or 20 ng/ml, 1 hour pretreatment with 100 nM
Procedure: (§7) At confluency HMECs were treated for 1 h at 37° C. with Bryostatin-1 (10 nM, 100 nM) in MCDB-131 media or MCDB-131 media alone. Inserts were washed three times with Hank's Balanced Salt Solution (HBSS) (to eliminate drug effects on the neutrophils) and placed in a new plate containing either 500 μL 100 nM LTB4, or HBSS alone for control. 500 μL HBSS was then added to the top well and spiked with 500,000 neutrophils. For TNF-α experiments, HMECs were left in 20 ng/ml TNF-α in MCDB-131 for 24 h TNF-α was removed and HMECs washed three times. HMECs were treated for 1 h with Bryostatin-1 in endothelial growth medium (EGM) (10 nM, 100 nM). The drug was removed and cells were washed three times. 500 μL HBSS was added to both upper and lower chambers and spiked with 500,000 neutrophils. Neutrophils were allowed to migrate for 3 h at 37° C. Migration was stopped by removing the inserts and migration was measured using the myeloperoxidase (MPO) assay.
as §2

[11] = test system: HMECs; test: LTB4 induced neutrophil migration across HMEC monolayers (transwell, MPO assay); format: cell-based, human; conditions: 100 nM LTB4; for LTB4 induced neutrophil migration: HMECs on transwells, 1 h pretreatment 100 nM or 10 nM (PMA: 100, 10 or 1 nM), 3 h; for LTB4 induced neutrophil migration (PMN TEM) / LTB4 induced neutrophil TEM: HMECs; for LTB4 induced neutrophil migration (PMN TEM): 1 h pretreatment at 1 nM; for LTB4 induced neutrophil TEM: 1 h pretreatment, higher doses (100 nM)
Procedure: as §7, §2, §5

[12] = test system: HUVEC; test: Alamar blue endothelial viability assay, HUVEC; format: cell-based, human
Procedure: as §3

[13] = test system: endothelial and epithelial cells; conditions: several types of endothelial and epithelial cells; cited from earlier work
[14] = test system: endothelial cells; conditions: greater effect seen with PKC-α inhibition; cited from earlier work
[15] = single 1 h 100 nM treatment, time points 1, 24, 48 h (PMA: except 48 h)

COc1ccc2c(c1)c(C1=C(c3c[nH]c4ccccc34)C(=O)NC1=O)cn2CCCN(C)C [Go-6983]
Bryostatin-1 mediated reduction in migration towards LTB4, effect of PKC inhibitor pretreatment ([1]; inhibitor 10 or 100 nM, 30 minutes before 100 nM Bryostatin-1): prevented
restoration of PMN TEM in response to LTB4 by PKC inhibitors (reversal of Bryostatin-1 protection) [1]: dose dependently restored neutrophil migration
restoration of PMN TEM in response to LTB4 by PKC inhibitors (reversal of Bryostatin-1 protection) ([1]; listed as G0-6983): dose dependently reversed

CCC/C=C/C=C/C(=O)O[C@H]1/C(=C/C(=O)OC)C[C@H]2C[C@H]([C@@H](C)O)OC(=O)C[C@H](O)C[C@@H]3C[C@H](OC(C)=O)C(C)(C)[C@](O)(C[C@@H]4C/C(=C/C(=O)OC)C[C@H](/C=C/C(C)(C)[C@]1(O)O2)O4)O3 [Bryostatin-1]
LTB4 induced neutrophil migration ([1]; 100 nM Bryostatin-1, 1 hour, 100 nM LTB4, 3 h): reversed; also recorded: significantly suppressed LTB4 induced migration
cardiovascular disturbances or edema ([2]; Phase II cancer trials): no cardiovascular disturbances or evidence of edema have been observed
major side effects associated with use ([2]; Phase II cancer trials): myalgias, nausea, and vomiting
adverse effects ([2]; healthy subjects and cancer patients, dosing ranges higher than for 100 ng/ml plasma level): no adverse effects
HMEC viability [3]: no effect
time after pretreatment up to which LTB4 induced migration is reduced [4]: up to 48 hours
time after pretreatment for which reduction in LTB4 induced migration is maintained [4]: at least 48 h
time after pretreatment for which reduction in LTB4 induced migration is maintained ([4]; listed as Bryostatin): 48 h
time after pretreatment for which reduction in LTB4 induced migration is maintained [5]: 48 h
LTB4 induced adhesion to the endothelial monolayer [6]: Neither PMA, nor Bryostatin-1 reduced LTB4 induced adhesion
barrier function [7]: enhances barrier function
barrier loss induced by TNF-α [7]: inhibits barrier loss
LTB4 induced neutrophil migration after pretreatment, PKC-ε knocked down [8]: did not restore LTB4 induced migration; also recorded: still suppresses migration
LTB4 induced neutrophil migration after pretreatment, PKC-δ knocked down [9]: restored the normal level of neutrophil trans endothelial migration
migration induced by a combination of TNF-α pretreatment and LTB4 gradient ([10]; 24 h TNF-α pretreatment and 100 nM LTB4 gradient, data not shown): reduced migration
TNF-α induced neutrophil TEM (Type II migration) [10]: attenuated Type II migration; also recorded: totally attenuated
LTB4 induced neutrophil migration [11]: reduced LTB4 induced migration in a dose dependent manner
LTB4 induced neutrophil migration (PMN TEM) [11]: did not reduce PMN TEM
LTB4 induced neutrophil TEM [11]: attenuated neutrophil TEM to levels below that of basal migration
HUVEC viability [12, 15]: no effect

CC(=O)c1c(O)c(C)c(O)c(Cc2c(O)c3c(c(C(=O)/C=C/c4ccccc4)c2O)OC(C)(C)C=C3)c1O [Rottlerin]
restoration of PMN TEM in response to LTB4 by PKC inhibitors (reversal of Bryostatin-1 protection) [1]: did not restore PMN TEM

CCCCCCCCCCCCCC(=O)O[C@@H]1[C@@H](C)[C@@]2(O)[C@@H](C=C(CO)C[C@]3(O)C(=O)C(C)=C[C@@H]23)[C@@H]2C(C)(C)[C@]12OC(C)=O [PMA, phorbol myristate acetate]
HMEC viability [3]: no effect
time after pretreatment up to which LTB4 induced migration is reduced [4]: up to 48 hours
time after pretreatment for which reduction in LTB4 induced migration is maintained [5]: up to 48 h
LTB4 induced adhesion to the endothelial monolayer [6]: Neither PMA, nor Bryostatin-1 reduced LTB4 induced adhesion
trans endothelial resistance (TER) [13]: decrease trans endothelial resistance (TER)
LTB4 induced neutrophil migration after pretreatment, PKC-ε knocked down [8]: did not restore LTB4 induced migration
migration induced by a combination of TNF-α pretreatment and LTB4 gradient [10]: reduced migration
TNF-α induced neutrophil TEM (Type II migration) [10]: attenuated Type II migration; also recorded: totally attenuated
LTB4 induced neutrophil migration [11]: reduced LTB4 induced migration in a dose dependent manner
LTB4 induced neutrophil migration (PMN TEM) [11]: did not reduce PMN TEM; also recorded: had no effect on LTB4 induced migration
LTB4 induced neutrophil TEM [11]: attenuated neutrophil TEM to levels below that of basal migration
HUVEC viability ([12]; 48 h after a single 1 h treatment with 100 nM): slight but significant reduction in viability
HUVEC viability [12, 15]: no effect

Cn1c2ccccc2c2c3c(c4c5ccccc5n(CCC#N)c4c21)CNC3=O [GO-6976]
restoration of PMN TEM in response to LTB4 by PKC inhibitors (reversal of Bryostatin-1 protection) [1]: did not restore PMN TEM

CN(C)CCCn1cc(C2=C(c3c[nH]c4ccccc34)C(=O)NC2=O)c2ccccc21 [GF10923X]
restoration of PMN TEM in response to LTB4 by PKC inhibitors (reversal of Bryostatin-1 protection) [1]: did not restore PMN TEM

hypocrellin A
increased permeability caused by high glucose and PMA [14]: reduced this increased permeability
